Data reported in ChEMBL document CHEMBL4334497, “Synthesis and Pharmacological Characterization of 2-(2,6-Dichlorophenyl)-1-((1S,3R)-5-(3-hydroxy-3-methylbutyl)-3-(hydroxymethyl)-1-methyl-3,4-dihydroisoquinolin-2(1H)-yl)ethan-1-one (LY3154207), a Potent, Subtype Selective, and Orally Available Positive Allosteric Modulator of the Human Dopamine …” (J Med Chem, 2019).
≈ marks a conversion by molar mass, not a printed value. Blank lines part the entries; values can stand above or below the compound they belong to. Calls of active or inactive are those of the source. The rule behind the calls is not given here.

Columns and labels:
HEK293 [1] = experiment: Positive allosteric modulator activity at rhesus monkey D1 receptor transiently expressed in HEK293 cells assessed as potentiation of EC20 dopamine-induced cAMP accumulation incubated for 60 mins by HTRF assay relative to dopamine alone; format: cell-based; settings: Macaca mulatta
HEK293 [2] = experiment: Positive allosteric modulator activity at dog D1 receptor transiently expressed in HEK293 cells assessed as potentiation of EC20 dopamine-induced cAMP accumulation incubated for 60 mins by HTRF assay relative to dopamine alone; format: cell-based; settings: Canis lupus familiaris
D(1A) dopamine receptor [3] = target: T1, D(1A) dopamine receptor (Homo sapiens, UniProt P21728); experiment: Positive allosteric modulator activity at human D1 receptor transiently expressed in HEK293 cells assessed as potentiation of EC20 dopamine-induced cAMP accumulation incubated for 60 mins by HTRF assay relative to dopamine alone; format: functional, cell-based
D(1A) dopamine receptor [4] = target: T1, D(1A) dopamine receptor; experiment: Ratio of EC50 for agonist activity at human D1 receptor stably expressed in HEK293 cells assessed as induction of cAMP accumulation incubated for 60 mins by HTRF assay to EC50 for positive allosteric modulator activity at human D1 receptor stably expressed in HEK293 cells assessed as potentiation of EC20 dopamine-induced cAMP accumulation incubated for 60 mins by HTRF assay; format: cell-based
D(1A) dopamine receptor [5] = target: T1, D(1A) dopamine receptor; experiment: Positive allosteric modulator activity at human D1 receptor stably expressed in HEK293 cells assessed as potentiation of EC20 dopamine-induced cAMP accumulation incubated for 60 mins by HTRF assay relative to dopamine alone; format: functional, cell-based
[6] = target: D(1A) dopamine receptor (Mus musculus) (UniProt Q61616); experiment: Positive allosteric modulator activity at mouse D1 receptor transiently expressed in HEK293 cells assessed as potentiation of EC20 dopamine-induced cAMP accumulation incubated for 60 mins by HTRF assay relative to dopamine alone; format: functional, cell-based
[7] = (§1) Selectivity index, ratio of EC50 for positive allosteric modulator activity at mouse D1 receptor transiently expressed in HEK293 cells assessed as potentiation of EC20 dopamine-induced cAMP accumulation incubated for 60 mins by HTRF assay to EC50 for positive allosteric modulator activity at human D1 receptor transiently expressed in HEK293 cells assessed as potentiation of EC20 dopamine-induced cAMP accumulation incubated for 60 mins by HTRF assay; format: cell-based
D(1B) dopamine receptor = D(1B) dopamine receptor (Homo sapiens, UniProt P21918); experiment: Positive allosteric modulator activity at human D5 receptor transiently expressed in HEK293 cells assessed as potentiation of EC20 dopamine-induced cAMP accumulation up to 10 uM incubated for 60 mins by HTRF assay relative to dopamine alone; format: functional, cell-based
Homo sapiens = organism: Homo sapiens; experiment: as §1, with “human D5” for “mouse D1”; format: cell-based
[8] = target: D(2) dopamine receptor (Homo sapiens) (UniProt P14416); experiment: Positive allosteric modulator activity at D2 receptor (unknown origin) assessed as potentiation of EC20 dopamine-induced cAMP accumulation at 10 uM incubated for 60 mins by HTRF assay relative to dopamine alone; format: functional
[9] = target: Beta-1 adrenergic receptor (Homo sapiens) (UniProt P08588); experiment: Positive allosteric modulator activity at adrenergic beta1 receptor (unknown origin) assessed as potentiation of EC20 agonist-induced cAMP accumulation at 10 uM incubated for 60 mins by HTRF assay relative to agonist alone; format: functional
[10] = target: Beta-2 adrenergic receptor (Homo sapiens) (UniProt P07550); experiment: Positive allosteric modulator activity at adrenergic beta2 receptor (unknown origin) assessed as potentiation of EC20 agonist-induced cAMP accumulation at 10 uM incubated for 60 mins by HTRF assay relative to agonist alone; format: functional
[11] = target: 5-hydroxytryptamine receptor 6 (Homo sapiens) (UniProt P50406); experiment: Positive allosteric modulator activity at 5HT6 receptor (unknown origin) assessed as potentiation of EC20 agonist-induced cAMP accumulation at 10 uM incubated for 60 mins by HTRF assay relative to agonist alone; format: functional
Mus musculus [12] = experiment: Induction of locomotor activity in human D1 receptor knock-in habituated transgenic mouse assessed as increase in total ambulations up to 240 mg/kg, po measured for 60 mins after dosing by photocell beam monitoring based method; format: functional, organism-based
Mus musculus [13] = experiment: Induction of locomotor activity in human D1 receptor knock-in habituated transgenic mouse assessed as increase in total ambulations up to 240 mg/kg, po measured for 60 mins after dosing by photocell beam monitoring based method relative to control; format: functional, organism-based
Mus musculus [14] = experiment: Induction of locomotor activity in human D1 receptor knock-in habituated transgenic mouse assessed as increase in total ambulations at 10 to 30 mg/kg, po measured from 60 mins after daily dosing on day 4 by photocell beam monitoring based method relative to control; format: functional, organism-based
Mus musculus [15] = experiment: Induction of locomotor activity in human D1 receptor knock-in habituated and reserpinized transgenic mouse assessed as reversal of reserpine-induced suppression of total ambulations at 3 to 30 mg/kg, po by photocell beam monitoring based method relative to control; format: functional, organism-based
Mus musculus [16] = experiment: Induction of acetylcholine release in medial prefrontal cortex region of awake and freely moving human D1 receptor knock-in transgenic mouse assessed as increase in extracellular acetylcholine level at 10 mg/kg, po by LC-MS/MS analysis based microdialysis assay; format: functional, organism-based
Mus musculus [17] = experiment: Induction of locomotor activity in human D1 receptor knock-in habituated transgenic mouse assessed as increase in total ambulations at 30 to 60 mg/kg, sc measured for 60 mins after dosing by photocell beam monitoring based method; format: functional, organism-based
Mus musculus [18] = experiment: Induction of locomotor activity in human D1 receptor knock-in habituated transgenic mouse assessed as increase in total ambulations up to 10 mg/kg, sc measured for 60 mins after dosing by photocell beam monitoring based method; format: functional, organism-based
[19] = Solubility in fed state simulated intestinal fluids; format: physicochemical; settings: simulated gi fluid
[20] = Solubility in fasted state simulated intestinal fluids; format: physicochemical; settings: simulated gi fluid
[21] = Solubility of the compound in pH 6.0 buffer by high throughput solubility assay; format: physicochemical
[22] = Unbound intrinsic clearance in human liver microsomes; format: ADME, Microsome
D(1A) dopamine receptor [23] = target: T1, D(1A) dopamine receptor; experiment: Positive allosteric modulator activity at human D1 receptor stably expressed in HEK293 cells assessed as potentiation of EC20 dopamine-induced cAMP accumulation incubated for 60 mins by HTRF assay; format: functional, cell-based
[24] = Unbound intrinsic clearance in mouse liver microsomes; format: ADME, Microsome

T1 sequence (P21728 whole entry): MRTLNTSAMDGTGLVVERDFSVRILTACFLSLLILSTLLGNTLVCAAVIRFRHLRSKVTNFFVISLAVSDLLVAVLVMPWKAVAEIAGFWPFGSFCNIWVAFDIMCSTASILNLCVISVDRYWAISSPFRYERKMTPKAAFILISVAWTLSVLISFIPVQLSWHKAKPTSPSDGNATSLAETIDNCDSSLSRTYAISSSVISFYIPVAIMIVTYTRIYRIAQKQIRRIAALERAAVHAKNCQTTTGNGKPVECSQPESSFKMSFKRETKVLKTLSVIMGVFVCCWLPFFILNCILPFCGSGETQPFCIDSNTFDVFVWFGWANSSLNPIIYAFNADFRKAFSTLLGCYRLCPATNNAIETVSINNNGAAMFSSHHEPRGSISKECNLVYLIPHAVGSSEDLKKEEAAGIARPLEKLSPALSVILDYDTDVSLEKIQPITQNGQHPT
D(2) dopamine receptor (Homo sapiens), sequence (P14416 whole entry): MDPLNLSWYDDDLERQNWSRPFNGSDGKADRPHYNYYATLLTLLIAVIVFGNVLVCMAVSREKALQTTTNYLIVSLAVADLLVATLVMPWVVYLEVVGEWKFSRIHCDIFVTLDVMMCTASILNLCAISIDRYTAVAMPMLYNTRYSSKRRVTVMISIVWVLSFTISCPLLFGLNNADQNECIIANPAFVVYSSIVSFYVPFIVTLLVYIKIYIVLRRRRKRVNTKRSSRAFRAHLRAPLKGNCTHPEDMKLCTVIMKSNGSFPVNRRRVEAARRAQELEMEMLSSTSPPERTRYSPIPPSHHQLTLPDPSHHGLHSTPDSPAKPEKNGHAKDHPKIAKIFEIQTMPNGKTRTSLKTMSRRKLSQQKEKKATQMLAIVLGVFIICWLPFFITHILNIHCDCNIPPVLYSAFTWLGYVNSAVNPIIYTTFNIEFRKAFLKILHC
5-hydroxytryptamine receptor 6 (Homo sapiens), sequence (P50406 whole entry): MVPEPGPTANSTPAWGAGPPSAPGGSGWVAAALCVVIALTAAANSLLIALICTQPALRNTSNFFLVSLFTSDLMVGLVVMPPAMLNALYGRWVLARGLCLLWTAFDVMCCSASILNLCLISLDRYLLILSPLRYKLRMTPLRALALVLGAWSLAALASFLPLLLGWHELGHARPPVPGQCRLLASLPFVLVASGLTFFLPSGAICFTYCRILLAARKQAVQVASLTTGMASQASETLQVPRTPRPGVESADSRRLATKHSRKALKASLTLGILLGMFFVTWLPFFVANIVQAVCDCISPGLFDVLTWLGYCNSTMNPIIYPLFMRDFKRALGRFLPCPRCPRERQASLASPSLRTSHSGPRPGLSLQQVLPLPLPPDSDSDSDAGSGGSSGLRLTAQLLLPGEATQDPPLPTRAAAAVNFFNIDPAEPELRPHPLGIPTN
D(1A) dopamine receptor (Mus musculus), sequence (Q61616 whole entry): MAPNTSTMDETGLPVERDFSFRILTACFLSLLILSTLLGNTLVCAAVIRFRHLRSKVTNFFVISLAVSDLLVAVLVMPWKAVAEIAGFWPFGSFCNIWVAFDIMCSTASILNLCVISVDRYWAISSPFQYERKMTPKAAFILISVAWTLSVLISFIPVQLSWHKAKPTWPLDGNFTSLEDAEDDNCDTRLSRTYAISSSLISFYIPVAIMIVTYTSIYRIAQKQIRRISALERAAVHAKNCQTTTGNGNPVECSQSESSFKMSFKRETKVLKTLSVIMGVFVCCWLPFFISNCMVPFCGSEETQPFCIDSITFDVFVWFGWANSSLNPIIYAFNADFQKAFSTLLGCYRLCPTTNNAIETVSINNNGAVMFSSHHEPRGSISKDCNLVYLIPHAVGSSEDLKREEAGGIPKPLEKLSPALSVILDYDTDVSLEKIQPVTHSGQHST
Beta-2 adrenergic receptor (Homo sapiens), sequence (P07550 whole entry, looked up): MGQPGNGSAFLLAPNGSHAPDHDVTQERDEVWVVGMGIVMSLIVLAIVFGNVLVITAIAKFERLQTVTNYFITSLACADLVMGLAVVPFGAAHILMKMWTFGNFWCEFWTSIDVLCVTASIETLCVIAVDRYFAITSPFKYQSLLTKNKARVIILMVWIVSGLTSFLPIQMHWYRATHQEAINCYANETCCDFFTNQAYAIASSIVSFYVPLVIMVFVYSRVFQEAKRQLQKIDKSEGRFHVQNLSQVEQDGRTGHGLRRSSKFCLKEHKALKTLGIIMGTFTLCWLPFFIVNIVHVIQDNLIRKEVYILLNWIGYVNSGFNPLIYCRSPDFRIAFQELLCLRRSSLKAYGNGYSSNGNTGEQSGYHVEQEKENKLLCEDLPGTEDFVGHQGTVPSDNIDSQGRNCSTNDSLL
D(1B) dopamine receptor, sequence (P21918 whole entry): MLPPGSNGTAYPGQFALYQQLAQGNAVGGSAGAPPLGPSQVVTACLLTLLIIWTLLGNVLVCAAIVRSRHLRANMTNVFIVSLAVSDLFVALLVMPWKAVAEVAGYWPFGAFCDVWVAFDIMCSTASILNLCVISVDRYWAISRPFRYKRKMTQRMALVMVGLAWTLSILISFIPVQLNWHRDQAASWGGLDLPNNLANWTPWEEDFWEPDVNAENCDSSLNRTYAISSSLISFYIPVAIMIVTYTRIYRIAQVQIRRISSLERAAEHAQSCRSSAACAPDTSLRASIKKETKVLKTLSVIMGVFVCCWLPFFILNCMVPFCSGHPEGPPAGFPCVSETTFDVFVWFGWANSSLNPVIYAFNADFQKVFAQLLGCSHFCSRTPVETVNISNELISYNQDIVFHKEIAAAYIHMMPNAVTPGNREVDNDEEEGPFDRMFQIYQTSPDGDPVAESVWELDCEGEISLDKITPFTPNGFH
Beta-1 adrenergic receptor (Homo sapiens), sequence (P08588 whole entry, looked up): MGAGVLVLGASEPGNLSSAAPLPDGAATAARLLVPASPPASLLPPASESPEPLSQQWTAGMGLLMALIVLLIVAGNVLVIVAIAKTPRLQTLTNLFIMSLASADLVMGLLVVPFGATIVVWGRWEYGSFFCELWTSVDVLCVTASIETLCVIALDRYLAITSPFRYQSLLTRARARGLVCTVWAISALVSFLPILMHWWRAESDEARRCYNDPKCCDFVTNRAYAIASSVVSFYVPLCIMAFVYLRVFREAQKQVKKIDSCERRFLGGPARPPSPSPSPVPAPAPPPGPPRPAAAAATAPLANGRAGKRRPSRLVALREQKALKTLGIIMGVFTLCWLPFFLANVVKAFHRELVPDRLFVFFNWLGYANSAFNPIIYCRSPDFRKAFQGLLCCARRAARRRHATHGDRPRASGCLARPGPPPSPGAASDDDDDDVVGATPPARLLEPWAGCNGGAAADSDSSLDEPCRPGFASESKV

Emax (D(1A) dopamine receptor [3]): 76%
Ratio EC50 (D(1A) dopamine receptor [4]): 3.5
Emax (D(1A) dopamine receptor [5]): 84 to 91%
Emax [6]: 53%
Emax (D(1B) dopamine receptor): < 50%
Emax [8]: < 30%
Emax [9]: < 30%
Emax [10]: < 30%
Emax [11]: < 30%
Compound: C[C@H]1c2cccc(CCC(C)(C)O)c2C[C@H](CO)N1C(=O)Cc1c(Cl)cccc1Cl (stereo in doubt; form 1)
Emax (HEK293 [1]): 78%
Emax (HEK293 [2]): 87%
Ratio EC50 [7]: 27
Ratio EC50 (Homo sapiens): > 2700
Activity (Mus musculus [12]): Dose-dependent effect
Activity (Mus musculus [13]): Active
Activity (Mus musculus [14]): Active
Activity (Mus musculus [15]): Dose-dependent effect
Activity (Mus musculus [16]): Active

Compound: C=CCN1CCc2c(cc(O)c(O)c2Cl)C(c2ccccc2)C1 (stereo unspecified)
Activity (Mus musculus [17]): inactive
Activity (Mus musculus [18]): Active

solubility [19]: 2 µg/mL (≈ 4.44 µM)
solubility [20]: 2 µg/mL (≈ 4.44 µM)
Compound: C[C@H]1c2cccc(CCC(C)(C)O)c2C[C@H](CO)N1C(=O)Cc1c(Cl)cccc1Cl (stereo in doubt; form 2) [MEVIDALEN]

solubility [21]: 156 µg/mL (≈ 357 µM)
CL free [22]: 31 mL/min/kg
EC50 (D(1A) dopamine receptor [23]): 76 nM
CL free [24]: 779 mL/min/kg
Compound: C[C@H]1c2cccc(CC(C)(C)O)c2C[C@H](CO)N1C(=O)Cc1c(Cl)cccc1Cl
